The source of these data is US8846933B2, “N-link hydroxamic acid derivatives useful as antibacterial agents” (Pfizer Inc., priority 2009, dated 2014).

The test system of assay [1] is Escherichia coli EC-1: VOGEL, mouse virulent. As to the kind of experiment: MIC determination (CLSI), strain EC-1. Type of assay: cell-based. The conditions noted are these: strain EC-1; unit assumed. An outline of the steps: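 The mouse-virulent VOGEL isolate of E. coli, EC-1, served as test organism. Minimum inhibitory concentration was measured by CLSI dilution methodology (M7-A7; M100-S18 standards).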

Assay [2] relates to Pseudomonas aeruginosa UI-18: Wild-type (PA-7). Description: MIC determination (CLSI), strain PA-7. Type of assay: cell-based. The note with it: strain PA-7; unit assumed. An outline of the steps: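 Strain tested was P. aeruginosa UI-18, a wild-type isolate labelled PA-7. Minimum inhibitory concentrations followed CLSI dilution methodology for aerobically growing bacteria (M7-A7, M100-S18).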

Take `C[C@@](CCn1ccc(-c2ccc(-n3cncn3)cc2)cc1=O)(C(=O)NO)S(C)(=O)=O` [Example 371, (2R)-N-hydroxy-2-methyl-2-(methylsulfonyl)-4-{2-oxo-4-[4-(1H-1,2,4-triazol-1-yl)phenyl]pyridin-1(2H)-yl}butanamide]: the EC-1 (MIC) in assay [1] was 32 µg/mL. In assay [2], this compound gave a PA-7 (MIC) of 8 µg/mL.
Taken in the same sequence, the figures for `C[C@@](CCn1ccc(-c2ccc(-n3nccn3)cc2F)cc1=O)(C(=O)NO)S(C)(=O)=O` [Example 372] were 0.06 µg/mL and 2 µg/mL.
In the same order, the values of `Cc1nn(-c2ccc(-c3ccn(CC[C@](C)(C(=O)NO)S(C)(=O)=O)c(=O)c3)cc2)nc1C` [Example 373, (2R)-4-{4-[4-(4,5-dimethyl-2H-1,2,3-triazol-2-yl)phenyl]-2-oxopyridin-1(2H)-yl}-N-hydroxy-2-methyl-2-(methylsulfonyl)butanamide] are 0.125 µg/mL and 1 µg/mL.
Regarding `C[C@@](CCn1ccc(-c2ccc(-c3ccccn3)cc2)cc1=O)(C(=O)NO)S(C)(=O)=O` [Example 374, (2R)-N-hydroxy-2-methyl-2-(methylsulfonyl)-4-[2-oxo-4-(4-pyridin-2-ylphenyl)pyridin-1(2H)-yl]butanamide], the EC-1 (MIC) in assay [1] worked out at 0.25 µg/mL. The compound also came in with a PA-7 (MIC) in assay [2] of 1 µg/mL.
In the same order, the values of `Cc1ccnc(-c2ccc(-c3ccn(CC[C@](C)(C(=O)NO)S(C)(=O)=O)c(=O)c3)cc2)n1` [Example 375, (2R)-N-hydroxy-2-methyl-4-{4-[4-(4-methylpyrimidin-2-yl)phenyl]-2-oxopyridin-1(2H)-yl}-2-(methylsulfonyl)butanamide] are 0.5 µg/mL and 4 µg/mL.
In the same order, the values of `Cn1nnc(-c2ccc(-c3ccn(CC[C@](C)(C(=O)NO)S(C)(=O)=O)c(=O)c3)cc2)n1` [Example 376] are 0.5 µg/mL and 2 µg/mL.
In assay [1], `Cc1cn(-c2ccc(-c3ccn(CC[C@](C)(C(=O)NO)S(C)(=O)=O)c(=O)c3)cc2)nn1` [Example 377, (2R)-N-hydroxy-2-methyl-2-(methylsulfonyl)-4-{4-[4-(4-methyl-1H-1,2,3-triazol-1-yl)phenyl]-2-oxopyridin-1(2H)-yl}butanamide] came in with an EC-1 (MIC) of 8 µg/mL. Moreover, the PA-7 (MIC) in assay [2] stood at 8 µg/mL.
Turning to `Cc1nnnn1-c1ccc(-c2ccn(CC[C@](C)(C(=O)NO)S(C)(=O)=O)c(=O)c2)cc1` [Example 378, (2R)-N-hydroxy-2-methyl-2-(methylsulfonyl)-4-{4-[4-(5-methyl-1H-tetrazol-1-yl)phenyl]-2-oxopyridin-1(2H)-yl}butanamide], the EC-1 (MIC) in assay [1] worked out at 32 µg/mL. Moreover, the PA-7 (MIC) in assay [2] was 64 µg/mL.
In assay [1], `Cc1nnn(-c2ccc(-c3ccn(CC[C@](C)(C(=O)NO)S(C)(=O)=O)c(=O)c3)cc2)n1` [Example 379, (2R)-N-hydroxy-2-methyl-2-(methylsulfonyl)-4-{4-[4-(5-methyl-2H-tetrazol-2-yl)phenyl]-2-oxopyridin-1(2H)-yl}butanamide] yielded an EC-1 (MIC) of 0.5 µg/mL. The PA-7 (MIC) in assay [2] stood at 2 µg/mL.
In the same order, the values of `C[C@@](CCn1ccc(-c2ccc(-c3cnsc3)cc2)cc1=O)(C(=O)NO)S(C)(=O)=O` [Example 380, (2R)-N-hydroxy-4-[4-(4-isothiazol-4-ylphenyl)-2-oxopyridin-1(2H)-yl]-2-methyl-2-(methylsulfonyl)butanamide] are 0.5 µg/mL and 1 µg/mL.
Taken in the same sequence, the figures for `C[C@@](CCn1ccc(-c2ccc3cc(N4CCC(O)CC4)ccc3c2)cc1=O)(C(=O)NO)S(C)(=O)=O` [Example 381, (2R)-N-hydroxy-4-{4-[6-(4-hydroxypiperidin-1-yl)-2-naphthyl]-2-oxopyridin-1(2H)-yl}-2-methyl-2-(methylsulfonyl)butanamide] were 1 µg/mL and 16 µg/mL.
Taken in the same sequence, the figures for `Cc1nnc(C)n1-c1ccc(-c2ccn(CC[C@](C)(C(=O)NO)S(C)(=O)=O)c(=O)c2)cc1` [Example 382, (2R)-4-{4-[4-(3,5-dimethyl-4H-1,2,4-triazol-4-yl)phenyl]-2-oxopyridin-1(2H)-yl}-N-hydroxy-2-methyl-2-(methylsulfonyl)butanamide] were > 64 µg/mL and > 64 µg/mL.
For `Cc1nncn1-c1ccc(-c2ccn(CC[C@](C)(C(=O)NO)S(C)(=O)=O)c(=O)c2)cc1` [Example 383, (2R)-N-hydroxy-2-methyl-2-(methylsulfonyl)-4-{4-[4-(3-methyl-4H-1,2,4-triazol-4-yl)phenyl]-2-oxopyridin-1(2H)-yl}butanamide], the EC-1 (MIC) in assay [1] was > 64 µg/mL. In assay [2], the PA-7 (MIC) was > 64 µg/mL.
Regarding `Cc1nc(C)n(-c2ccc(-c3ccn(CC[C@](C)(C(=O)NO)S(C)(=O)=O)c(=O)c3)cc2)n1` [Example 384, (2R)-4-{4-[4-(3,5-dimethyl-1H-1,2,4-triazol-1-yl)phenyl]-2-oxopyridin-1(2H)-yl}-N-hydroxy-2-methyl-2-(methylsulfonyl)butanamide], the EC-1 (MIC) in assay [1] was determined as 8 µg/mL. This compound displayed a PA-7 (MIC) in assay [2] of 16 µg/mL.
In the same order, the values of `CCOc1ccc2cc(-c3ccn(CC[C@](C)(C(=O)NO)S(C)(=O)=O)c(=O)c3)ccc2n1` [Example 385, (2R)-4-[4-(2-ethoxyquinolin-6-yl)-2-oxopyridin-1(2H)-yl]-N-hydroxy-2-methyl-2-(methylsulfonyl)butanamide] are 0.06 µg/mL and 0.5 µg/mL.
Taken in the same sequence, the figures for `C[C@@](CCn1ccc(-c2ccc(Cl)cc2Cl)cc1=O)(C(=O)NO)S(C)(=O)=O` [Example 386] were 2 µg/mL and 2 µg/mL.
In the same order, the values of `COc1cnc(-c2ccc(-c3ccn(CC[C@](C)(C(=O)NO)S(C)(=O)=O)c(=O)c3)cc2)nc1` [Example 387, (2R)-N-hydroxy-4-{4-[4-(5-methoxypyrimidin-2-yl)phenyl]-2-oxopyridin-1(2H)-yl}-2-methyl-2-(methylsulfonyl)butanamide] are 0.06 µg/mL and 0.5 µg/mL.
For the compound `C[C@@](CCn1ccc(-c2ccc(-n3ccnc3)cc2)cc1=O)(C(=O)NO)S(C)(=O)=O` [Example 388, (2R)-N-hydroxy-4-{4-[4-(1H-imidazol-1-yl)phenyl]-2-oxopyridin-1(2H)-yl}-2-methyl-2-(methylsulfonyl)butanamide], in assay [1], the EC-1 (MIC) stood at 16 µg/mL. Further, the PA-7 (MIC) in assay [2] amounted to 16 µg/mL.
Regarding `C[C@@](CCn1ccc(-c2ccc(-c3cocn3)cc2)cc1=O)(C(=O)NO)S(C)(=O)=O` [Example 389, (2R)-N-hydroxy-2-methyl-2-(methylsulfonyl)-4-{4-[4-(1,3-oxazol-4-yl)phenyl]-2-oxopyridin-1(2H)-yl}butanamide], the EC-1 (MIC) in assay [1] came to 1 µg/mL. In addition, the PA-7 (MIC) in assay [2] worked out at 1 µg/mL.
Compound `CC(C)Oc1ccc(-c2ccn(CC[C@](C)(C(=O)NO)S(C)(=O)=O)c(=O)c2)cc1` [Example 390, (2R)-N-hydroxy-4-[4-(4-isopropoxyphenyl)-2-oxopyridin-1(2H)-yl]-2-methyl-2-(methylsulfonyl)butanamide] returned an EC-1 (MIC) in assay [1] of 0.25 µg/mL. In addition, the PA-7 (MIC) in assay [2] was found to be 0.5 µg/mL.
In the same order, the values of `C[C@@](CCn1ccc(-c2ccc(OC(F)(F)F)cc2)cc1=O)(C(=O)NO)S(C)(=O)=O` [Example 391, (2R)-N-hydroxy-2-methyl-2-(methylsulfonyl)-4-{2-oxo-4-[4-(trifluoromethoxy)phenyl]pyridin-1(2H)-yl}butanamide] are 0.25 µg/mL and 0.5 µg/mL.
Taken in the same sequence, the figures for `C[C@@](CCn1ccc(-c2cc(F)ccc2Cl)cc1=O)(C(=O)NO)S(C)(=O)=O` [Example 392, (2R)-4-[4-(2-chloro-5-fluorophenyl)-2-oxopyridin-1(2H)-yl]-N-hydroxy-2-methyl-2-(methylsulfonyl)butanamide] were 16 µg/mL and 8 µg/mL.
In the same order, the values of `COc1ccc(-c2ccn(CC[C@](C)(C(=O)NO)S(C)(=O)=O)c(=O)c2C)c(F)c1` [Example 393, (2R)-4-[4-(2-fluoro-4-methoxyphenyl)-3-methyl-2-oxopyridin-1(2H)-yl]-N-hydroxy-2-methyl-2-(methylsulfonyl)butanamide] are 0.5 µg/mL and 1 µg/mL.
In assay [1], `Cc1c(-c2ccc(Cl)cc2F)ccn(CC[C@](C)(C(=O)NO)S(C)(=O)=O)c1=O` [Example 394, (2R)-4-[4-(4-chloro-2-fluorophenyl)-3-methyl-2-oxopyridin-1(2H)-yl]-N-hydroxy-2-methyl-2-(methylsulfonyl)butanamide] had an EC-1 (MIC) of 1 µg/mL. Besides, in assay [2], the PA-7 (MIC) amounted to 1 µg/mL.
In assay [1], `Cc1c(-c2ccc(F)cc2)ccn(CC[C@](C)(C(=O)NO)S(C)(=O)=O)c1=O` [Example 395, (2R)-4-[4-(4-fluorophenyl)-3-methyl-2-oxopyridin-1(2H)-yl]-N-hydroxy-2-methyl-2-(methylsulfonyl)butanamide] yielded an EC-1 (MIC) of 1 µg/mL. Also, the PA-7 (MIC) in assay [2] came to 2 µg/mL.
In the same order, the values of `Cc1c(-c2ccc(Cl)cc2)ccn(CC[C@](C)(C(=O)NO)S(C)(=O)=O)c1=O` [Example 396, (2R)-4-[4-(4-chlorophenyl)-3-methyl-2-oxopyridin-1(2H)-yl]-N-hydroxy-2-methyl-2-(methylsulfonyl)butanamide] are 0.25 µg/mL and 0.5 µg/mL.
As to `COc1ccc(-c2ccn(CC[C@](C)(C(=O)NO)S(C)(=O)=O)c(=O)c2C)cc1` [Example 397, (2R)-N-hydroxy-4-[4-(4-methoxyphenyl)-3-methyl-2-oxopyridin-1(2H)-yl]-2-methyl-2-(methylsulfonyl)butanamide], the EC-1 (MIC) in assay [1] came to 0.25 µg/mL. Further, the PA-7 (MIC) in assay [2] is 1 µg/mL.
In the same order, the values of `Cc1c(-c2ccc(C#N)cc2)ccn(CC[C@](C)(C(=O)NO)S(C)(=O)=O)c1=O` [Example 398, (2R)-4-[4-(4-cyanophenyl)-3-methyl-2-oxopyridin-1(2H)-yl]-N-hydroxy-2-methyl-2-(methylsulfonyl)butanamide] are 4 µg/mL and 2 µg/mL.
